This is an account of results in US4331803A, “Novel erythromycin compounds” (Taisho Pharmaceutical Co., Ltd., priority 1980, dated 1982).

As usually defined, the MIC is the lowest concentration that inhibits growth of the organism. One may read the fraction remaining as what is left of the initial amount, in per cent.

The subject of data set [1] is Staphylococcus aureus TPR-5. Description: Antibacterial activity, agar plate dilution method (MIC). In kind it is cell-based. The procedure: (§1) The compound of the formula(I) was tested for the antibacterial activity by the agar plate dilution method, using erythromycin A for the control.
*Strain resistant to sulfonamides and penicillins

The subject of data set [2] is Staphylococcus aureus Smith No. 4. The experiment in a line: In vivo activity, survival of infected mice after oral administration. The arrangement: species or system male ddY mice. To be noted: 1 h after inoculation, 14 mice per group, 7 days. The method, then: Male ddY mice (body weight, 18-22 g; 14 mice per group) were inoculated with Staphylococcus aureus Smith No. 4. The compound of the formula(I) was administered orally one hour after the inoculation, and the number of mice surviving for seven days after the administration was noted.

Data set [3] in a line: Acid stability (pH 2), remaining antibacterial activity by disc method. In kind it is physicochemical, Staphylococcus aureus FDA 209P. The method, then:
(§2) The compound of the formula(I) was treated in the Clark-Lubs's buffer solution at pH 2 for the prescribed period of time.
(§3) Thereafter, the remaining antibacterial activity was determined by a disc method, using Staphylococcus aureus FDA 209P. Erthromycin A was also tested for the control.

The subject of data set [4] is Staphylococcus aureus FDA 209P. The data set is described as above. In kind it is physicochemical. To be noted: pH 2, Clark-Lubs's buffer, 0 min. The method, then: as §2, §3
The conditions of data set [5]: cited from earlier work.
For data set [6], the system named is Staphylococcus aureus TPR-7. The experiment in a line: Antibacterial activity, agar plate dilution method (MIC). In kind it is cell-based. The method, then: as §1
**Strain resistant to sulfonamides and tetracyclines

The subject of data set [7] is Staphylococcus epidermidis TPR-14. Described as above. In kind it is cell-based. The procedure:
as §1
***Strain resistant to sulfonamides, penicillins and chloramphenicol

The test system of data set [8] is Staphylococcus epidermidis IID866. Described as above. In kind it is cell-based. The procedure:
as §1

For data set [9], the system named is Staphylococcus aureus Terashima. Described as above. The class given is cell-based. To be noted: read-out: MIC value. The procedure:
as §1

For data set [10], the system named is Staphylococcus aureus Smith. The data set is described as above. In kind it is cell-based. To be noted: read-out: MIC value. The method, then: as §1
The test system of data set [11] is Bacillus cereus ATCC 9634. The data set is described as above. In kind it is cell-based. The method, then:
as §1

The subject of data set [12] is Bacillus subtilis ATCC 6633. Described as above. The class given is cell-based. The procedure: as §1
The subject of data set [13] is Micrococcus luteus ATCC 9341. The description is as above. The class given is cell-based. The procedure: as §1
Data set [14] relates to Staphylococcus aureus FDA 209P. The description is as above. As to conditions: FDA209P, read-out: MIC value. The class given is cell-based. The procedure: as §1
In data set [15] the test system is Streptococcus faecalis ATCC 8043. The data set is described as above. The class given is cell-based. As to conditions: Enterococcus faecalis. The procedure: as §1
Where [16] appears, read: TPR5, Staphylococcus aureus TPR-5, resistant to sulfonamides and penicillins, read-out: MIC value.
Where [17] appears, read: TPR7, Staphylococcus aureus TPR-7, resistant to sulfonamides and tetracyclines, read-out: MIC value.
[18] abbreviates: TPR14, Staphylococcus epidermidis TPR-14, resistant to sulfonamides, penicillins and chloramphenicol, read-out: MIC value.
[19] abbreviates: Staphylococcus epidermidis IID866, read-out: MIC value.
[20] abbreviates: Staphylococcus aureus Terashima.
[21] abbreviates: ATCC9634, Bacillus cereus ATCC 9634, read-out: MIC value.
Where [22] appears, read: ATCC6633, Bacillus subtilis ATCC 6633, read-out: MIC value.
Where [23] appears, read: ATCC9341, Micrococcus luteus ATCC 9341, read-out: MIC value.
Where [24] appears, read: ATCC8043, Streptococcus faecalis ATCC 8043, read-out: MIC value.

Converted amounts (≈) assume the structure as drawn. Where two headings read alike, the source gives them in different places.

Consider `CC[C@H]1OC(=O)[C@H](C)[C@@H](O[C@H]2C[C@@](C)(OC)[C@@H](O)[C@H](C)O2)[C@H](C)[C@@H](O[C@@H]2O[C@H](C)C[C@H](N(C)C)[C@H]2O)[C@](C)(O)C[C@@H](C)C(=O)[C@H](C)[C@@H](O)[C@]1(C)O` [Erythromycin A, erythromycin A, reference compound], for which the MIC in [1] (Staphylococcus aureus, TPR5, read-out: MIC value) stood at 0.4 mg/L (≈ 0.545 µM); in data set [6] (Staphylococcus aureus, TPR7, read-out: MIC value) it was 0.4 mg/L (≈ 0.545 µM); in data set [7] (Staphylococcus epidermidis, TPR14, read-out: MIC value), 0.4 mg/L (≈ 0.545 µM); in [8] (Staphylococcus epidermidis, IID866, read-out: MIC value), 0.4 mg/L (≈ 0.545 µM); in [9] (Staphylococcus aureus), 0.4 mg/L (≈ 0.545 µM); in [10] (Staphylococcus aureus), 0.4 mg/L (≈ 0.545 µM). Moreover, the MIC was 0.4 mg/L (≈ 0.545 µM) in [11] (Bacillus cereus, ATCC9634, read-out: MIC value); 0.1 mg/L (≈ 0.136 µM) in [12] (Bacillus subtilis, ATCC6633, read-out: MIC value); ≤ 0.05 mg/L in data set [13] (Micrococcus luteus, ATCC9341, read-out: MIC value); 0.2 mg/L (≈ 0.273 µM) in data set [14] (Staphylococcus aureus); 0.05 mg/L (≈ 0.0681 µM) in data set [15] (ATCC8043, read-out: MIC value). Further, the “The number of surviving mice” value was determined as 0 mice in data set [2] (0.40 mg/kg oral); 0 mice in data set [2] (1.56 mg/kg oral); 0 mice in data set [2] (6.25 mg/kg oral); 1 mice in data set [2] (25 mg/kg oral); 11 mice in data set [2] (100 mg/kg oral); 14 mice in data set [2] (400 mg/kg oral). In addition, the amount remaining at 0.25 h in [3] (pH 2, Clark-Lubs's buffer, 15 min, read-out: Remaining activity) turned out to be 1.5%. In [3] (pH 2, Clark-Lubs's buffer, 30 min, read-out: Remaining activity), the fraction remaining at 0.5 h amounted to 0.5%. Further, the amount remaining at 1 h in data set [3] (pH 2, Clark-Lubs's buffer, 60 min, read-out: Remaining activity) was determined as 0%. Further, the amount remaining at 2 h in [3] (pH 2, Clark-Lubs's buffer, 120 min, read-out: Remaining activity) turned out to be 0%. The Remaining activity in [4] is 100%. In data set [5], the “antibacterial activity after oral administration (acid in stomach)” value is listed as “loses rapidly the antibacterial activity”. Besides, the blood concentration result in data set [5] (oral) is on record as “remains at a low level”.

On to `CC[C@H]1OC(=O)[C@H](C)[C@@H](O[C@H]2C[C@@](C)(OC)[C@@H](O)[C@H](C)O2)[C@H](C)[C@@H](O[C@@H]2O[C@H](C)C[C@H](N(C)C)[C@H]2O)[C@](C)(OC)C[C@@H](C)C(=O)[C@H](C)[C@@H](O)[C@]1(C)O` [TE-031, 6-O-methylerythromycin A], for which the minimal inhibitory concentration (MIC) in data set [1] (setting [16]), in data set [6] (setting [17]), in data set [7] (setting [18]), in [8] (setting [19]), in data set [9] (setting [20]) and in [10] (Staphylococcus aureus Smith) was 0.2 mg/L (≈ 0.267 µM) in each case. The minimum inhibitory concentration (MIC) in data set [11] (setting [21]) was 0.2 mg/L (≈ 0.267 µM); in data set [12] (setting [22]) it was 0.05 mg/L (≈ 0.0668 µM); in data set [13] (setting [23]), ≤ 0.05 mg/L; in data set [14] (Staphylococcus aureus FDA 209P), 0.05 mg/L (≈ 0.0668 µM); in data set [15] (setting [24]) it was 0.05 mg/L (≈ 0.0668 µM). Also, the “The number of surviving mice” value in data set [2] (0.40 mg/kg oral) is on record as 0 mice; in data set [2] (1.56 mg/kg oral), 1 mice; in data set [2] (6.25 mg/kg oral) it was 3 mice; in data set [2] (25 mg/kg oral), 13 mice; in data set [2] (100 mg/kg oral) it was 14 mice; in data set [2] (400 mg/kg oral), 14 mice. In [3] (clark-lubs buffer, pH 2), this compound had a fraction remaining at 0.25 h of 100%. Also, the amount remaining at 0.5 h in data set [3] (clark-lubs buffer, pH 2) turned out to be 95%. For the same compound, the fraction remaining at 1 h in data set [3] (clark-lubs buffer, pH 2) is 80%. The compound further registered a fraction remaining at 2 h in data set [3] (clark-lubs buffer, pH 2) of 65%. In [4], this compound displayed a Remaining activity of 100%.

On to `CC[C@H]1OC(=O)[C@H](C)[C@@H](O[C@H]2C[C@@](C)(OC)[C@@H](O)[C@H](C)O2)[C@H](C)[C@@H](O[C@@H]2O[C@H](C)C[C@H](N(C)C)[C@H]2O)[C@](C)(OC)C[C@@H](C)C(=O)[C@H](C)[C@@H](OC)[C@]1(C)O` [TE-032, 6,11-di-O-methylerythromycin A], for which the minimum inhibitory concentration (MIC) in data set [1] (setting [16]) was 0.4 mg/L (≈ 0.525 µM); in data set [6] (setting [17]), 0.4 mg/L (≈ 0.525 µM); in data set [7] (setting [18]) it was 0.4 mg/L (≈ 0.525 µM); in data set [8] (setting [19]), 0.4 mg/L (≈ 0.525 µM); in [9] (setting [20]), 0.4 mg/L (≈ 0.525 µM); in data set [10] (Staphylococcus aureus Smith), 0.1 mg/L (≈ 0.131 µM). The MIC is 0.4 mg/L (≈ 0.525 µM) in [11] (setting [21]); 0.05 mg/L (≈ 0.0656 µM) in data set [12] (setting [22]); ≤ 0.05 mg/L in [13] (setting [23]); 0.1 mg/L (≈ 0.131 µM) in data set [14] (Staphylococcus aureus FDA 209P); 0.05 mg/L (≈ 0.0656 µM) in data set [15] (setting [24]). Besides, the “The number of surviving mice” value in [2] (0.40 mg/kg oral) is 0 mice; in data set [2] (1.56 mg/kg oral), 0 mice; in data set [2] (6.25 mg/kg oral), 4 mice; in data set [2] (25 mg/kg oral), 7 mice; in data set [2] (100 mg/kg oral), 14 mice; in data set [2] (400 mg/kg oral), 14 mice. In [3] (clark-lubs buffer, pH 2), the fraction remaining at 0.25 h came to 100%. Moreover, the amount remaining at 0.5 h in [3] (clark-lubs buffer, pH 2) turned out to be 95%. For the same compound, in data set [3] (clark-lubs buffer, pH 2), the fraction remaining at 1 h is 85%. This compound also had a share remaining at 2 h in data set [3] (clark-lubs buffer, pH 2) of 65%. This compound gave a Remaining activity in data set [4] of 100%.
